In patent US20250361264A1, “PROTEIN MODIFYING REAGENT” (CANON KABUSHIKI KAISHA, priority 2023, published 2025):

How the values were obtained:
fibroin sheet = target: T1, fibroin sheet (Bombyx mori, UniProt P05790); test: Color intensity of modified fibroin sheet after peroxidase DAB staining; type: biochemical; details: fibroin sheet adsorbed from 0.3 mg/mL solution; DAB staining solution 1.5 μL, 5 minutes; ImageJ; average of five sheets
T1 construct: purchased Sigma-Aldrich
Method: To 0.18 g of silk fibroin powder (manufactured by Sigma-Aldrich), 3.82 g of hexafluoro--2 propanol (HFIP) was added, and the mixture was stirred at room temperature using a mix rotor. Thereafter, filtration was performed using a filter (Millex-AP, Millipore) to obtain a 4.5 wt % fibroin solution. Fibroin solution (0.1 mL) was used to prepare and collect a sheet of fibroin fibers on an aluminum dish using an electrospinning device (NANON-03, MECC).
After methanol was added to the collected sheet, methanol was removed and dried overnight. The measurement of the weight of the fibroin sheet cut into 20 mm×40 mm size confirmed that it was 1.25 μg/mm^2 fibroin sheet. […]
To the fibroin sheet modified with Compound 1 obtained in Manufacturing Example 2, a staining solution (1.5 μL) of the peroxidase staining DAB kit (Brown Stain) (manufactured by Nacalai Tesque) was added dropwise and allowed to stand for 5 minutes in a wet box. […] After drying the sheet, the sheet was read by a scanner to acquire image data. The obtained image data were measured for color intensity using ImageJ software. Five sheets were made, and the same evaluation was carried out, and the average value of the color intensity (Color Intensity, hereinafter CI value) was calculated. The calculated CI value was 59.8.

silk fibroin powder = target: T2, silk fibroin powder (Bombyx mori, UniProt P05790); test: Evaluation of adsorptivity of groups containing aromatic rings to proteins having β-sheet structures; type: binding; details: for Adsorption rate to fibroin (%): 0.02 mM, 0.15 mL methanol solution on 10 mg silk fibroin powder, dried, 0.15 mL water, 5 minutes stirring, supernatant absorbance; for Adsorptivity: class of adsorption rate to fibroin
T2 construct: purchased Sigma-Aldrich
Method: After distillation of methanol by air-drying, 0.15 mL of water was added. After stirring for 5 minutes, the supernatant was collected. The adsorption rate of groups containing aromatic rings to fibroin was calculated from the concentration of groups containing aromatic rings in the collected supernatant liquid and the change in concentration by absorbance measurement, the adsorptivity of groups containing aromatic rings to proteins having β-sheet structures was evaluated using the following criteria.
“Evaluation A” and “Evaluation B” indicate the level at which groups containing aromatic rings adsorb strongly to proteins having a β-sheet structure, and “Evaluation C” indicates the low adsorptivity of groups containing aromatic rings.
• A: 90% or more • B: 60% or more but less than 90% • C: Less than 60%

HRP: horseradish peroxidase (manufactured by Sigma-Aldrich), unmodified comparison
CI value (average color intensity) (fibroin sheet): 39.5

Thioflavin T acid [reference compound]
Adsorption rate to fibroin (%) (silk fibroin powder): 91% | Adsorptivity (silk fibroin powder): A (90% or more)

O=C(O)CCNc1ccc(-c2nc3ccccc3s2)cc1 [Compound 2]
Adsorption rate to fibroin (%) (silk fibroin powder): 79% | Adsorptivity (silk fibroin powder): B (60% or more but less than 90%)

O=C(O)CCOc1ccccc1-c1nc2ccccc2s1 [Compound 4]
Adsorption rate to fibroin (%) (silk fibroin powder): 71% | Adsorptivity (silk fibroin powder): B (60% or more but less than 90%)

Compound 1: Thioflavin T acid bound to horseradish peroxidase (HRP); one Thioflavin T acid molecule per HRP molecule
CI value (average color intensity) (fibroin sheet): 59.8
